Converted amounts (≈) assume the structure as drawn.
Experiments:
Type in all cases: cell-based, Staphylococcus aureus
Staph aureus 1031 [1] = experiment: MIC in Mueller-Hinton Broth with 50% pooled inactivated human serum, Assay 2, Table 12 column G; conditions: for MIC: Staphylococcus aureus, 1031, Staph aureus 1031, Assay 2, 50% human serum
Method: (§1) The assays described herein include a panel of bacterial isolates of Staphylococcus aureus. Assay 1 comprises the strains noted in Columns A through E, and Assay 2 comprises the strains noted in Columns F through H. The assays are performed in microtiter trays according to Methods for Dilution Antimicrobial Susceptibility Tests for Bacteria that Grow Aerobically; Approved Standard-7th edition (M7-A7) and interpreted according to the Performance Standards for Antimicrobial Susceptibility Testing; 16th Informational Supplement (M100-S16) published by Clinical Laboratory Standards Institute (CLSI). The antibacterial activity is presented in the form of a minimum inhibitory concentration (MIC) value in μg/ml format. The MIC value represents the lowest concentration of drug measured which prevented macroscopically visible growth under the conditions and specific doses tested. The compounds were initially dissolved in DMSO as 30 mM stocks and diluted accordingly to adjust to a concentration of 10 mg/ml or the compounds were dissolved in DMSO at a concentration of 10 mg/ml. For assessment of activity in the presence of human serum, S. aureus 1146 and S. aureus 1031 were inoculated into Mueller-Hinton Broth with 50% pooled inactivated human serum. In some cases, compounds were tested more than once in a particular assay. Where noted, the MIC value shown in Table 12 represents the geometric mean of the data from multiple runs.
(§2) It should be understood that the data in columns A-H represents MIC data in μg/ml and the notation “<=” means ‘less than or equal to’.

Staph aureus 2810 = experiment: MIC, microtiter broth dilution (CLSI M7-A7), Assay 2, Table 12 column H, no serum; conditions: for MIC: Staphylococcus aureus, 2810, Staph aureus 2810, Assay 2, no serum; for MIC, column H: Staph aureus 2810, Assay 2, no serum
Method: as §1, §2

Staph aureus 1031 [2] = experiment: MIC, microtiter broth dilution (CLSI M7-A7), Assay 2, Table 12 column F, no serum; conditions: for MIC: Staphylococcus aureus, 1031, Staph aureus 1031, Assay 2, no serum; for MIC, column F: Staph aureus 1031, Assay 2, no serum
Method: as §1, §2

Staph aureus 2811 = experiment: MIC, microtiter broth dilution (CLSI M7-A7), Assay 1, Table 12 column D, no serum; conditions: for MIC, column D: Staph aureus 2811, Assay 1, no serum; for MIC: Staphylococcus aureus, 2811, Staph aureus 2811, Assay 1, no serum
Summary of the method: (§3)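 Testing followed the CLSI M7-A7 dilution standard in microtiter trays, with serum conditions using Mueller-Hinton Broth plus 50% pooled inactivated human serum. Values are the lowest concentrations with no macroscopically visible growth.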

Staph aureus 1146 [3] = experiment: MIC, microtiter broth dilution (CLSI M7-A7), Assay 1, Table 12 column B, no serum; conditions: for MIC, column B: Staph aureus 1146, Assay 1, no serum; for MIC: Staphylococcus aureus, 1146, Staph aureus 1146, Assay 1, no serum
Summary of the method: as §3

Staph aureus 2812 = experiment: MIC, microtiter broth dilution (CLSI M7-A7), Assay 1, Table 12 column E, no serum; conditions: for MIC, column E: Staph aureus 2812, Assay 1, no serum; for MIC: Staphylococcus aureus, 2812, Staph aureus 2812, Assay 1, no serum
Summary of the method: as §3

Staph aureus 1095 MRSA = experiment: MIC, microtiter broth dilution (CLSI M7-A7), Assay 1, Table 12 column A, no serum; conditions: Assay 1, no serum; for MIC: Staphylococcus aureus, MRSA
Summary of the method: as §3

Staph aureus 1146 [4] = experiment: MIC in Mueller-Hinton Broth with 50% pooled inactivated human serum, Assay 1, Table 12; conditions: for MIC, column C: Staph aureus 1146, Assay 1, 50% human serum; for MIC: Staphylococcus aureus, 1146, Staph aureus 1146, Assay 1, 50% human serum, read-out: MIC, column C
Summary of the method: as §3

## COc1ccc2nccc(C(O)CC[C@@H]3CCN(CC4CCc5nc(CC6CC6)ncc5C4)C[C@@H]3C(=O)O)c2c1 (stereo partly drawn) [Example 117, (3R,4R)-1-{[2-(cyclopropylmethyl)-5,6,7,8-tetrahydroquinazolin-6-yl]methyl}-4-[3-hydroxy-3-(6-methoxyquinolin-4-yl)propyl]piperidine-3-carboxylic acid]
Staph aureus 1031 [1]
  MIC: > 64 µg/mL
Staph aureus 2810
  MIC: > 64 µg/mL
Staph aureus 1031 [2]
  MIC: > 64 µg/mL

## COc1ccc2nccc(C(O)CC[C@@H]3CCN(C4CCc5cc(F)ccc54)C[C@@H]3C(=O)O)c2c1 (stereo partly drawn) [Example 74, (3R,4R)-1-(5-fluoro-2,3-dihydro-1H-inden-1-yl)-4-(3-hydroxy-3-(6-methoxyquinolin-4-yl)propyl)piperidine-3-carboxylic acid]
Staph aureus 1031 [1]
  MIC: > 64 µg/mL
Staph aureus 2810
  MIC: > 64 µg/mL
Staph aureus 1031 [2]
  MIC: > 64 µg/mL

## COc1ccc2ncc(Cl)c(CCNC3(C(=O)O)CCCN(CC4CCc5nc(C)ncc5C4)CC3)c2c1 (stereo not shown) [Example 158, 4-{[2-(3-chloro-6-methoxyquinolin-4-yl)ethyl]amino}-1-[(2-methyl-5,6,7,8-tetra hydroquinazolin-6-yl)methyl]azepane-4-carboxylic acid]
Staph aureus 1031 [1]
  MIC: > 64 µg/mL
Staph aureus 2810
  MIC: 32 µg/mL (≈ 59.5 µM)
Staph aureus 1031 [2]
  MIC: 32 µg/mL (≈ 59.5 µM)

## COc1ccc2nccc(C(O)CC[C@@H]3CCN(CC4CCc5nc(N6CCCCC6)ncc5C4)C[C@@H]3C(=O)O)c2c1 (stereo partly drawn) [Example 120, (3R,4R)-4-[3-hydroxy-3-(6-methoxyquinolin-4-yl)propyl]-1-[(2-piperidin-1-yl-5,6,7,8-tetrahydroquinazolin-6-yl)methyl]piperidine-3-carboxylic acid]
Staph aureus 1031 [1]
  MIC: > 64 µg/mL
Staph aureus 2810
  MIC: > 64 µg/mL
Staph aureus 1031 [2]
  MIC: > 64 µg/mL

## COc1ccc2nccc(C(O)CC[C@@H]3CCN(C4CN(c5ccccn5)C4)C[C@@H]3C(=O)O)c2c1 (stereo partly drawn) [Example 125, (3R,4R)-4-[3-hydroxy-3-(6-methoxyquinolin-4-yl)propyl]-1-(1-pyridin-2-ylazetidin-3-yl)piperidine-3-carboxylic acid]
Staph aureus 1031 [1]
  MIC: > 64 µg/mL
Staph aureus 2810
  MIC: 32 µg/mL (≈ 67.1 µM)
Staph aureus 1031 [2]
  MIC: > 64 µg/mL

## COc1ccc2nccc(C(O)CC[C@@H]3CCN(C4CCCc5ccccc54)C[C@@H]3C(=O)O)c2c1 (stereo partly drawn) [Example 77, (3R,4R)-4-(3-hydroxy-3-(6-methoxyquinolin-4-yl)propyl)-1-(1,2,3,4-tetrahydronaphthalen-1-yl)piperidine-3-carboxylic acid]
Staph aureus 1031 [1]
  MIC: > 64 µg/mL
Staph aureus 2810
  MIC: > 64 µg/mL
Staph aureus 1031 [2]
  MIC: > 64 µg/mL

## COc1ccc2nccc(C(O)CC[C@@H]3CCN(C4CC(c5ccccc5)C4)C[C@@H]3C(=O)O)c2c1 (single isomer, unassigned) [Example 1]
Staph aureus 2810
  MIC, column H: 0.125 µg/mL (≈ 0.263 µM)
Staph aureus 2811
  MIC, column D: <=.0787 μg/ml
Staph aureus 1146 [3]
  MIC, column B: <=.0787 μg/ml
Staph aureus 2812
  MIC, column E: <=.0992 μg/ml
Staph aureus 1095 MRSA
  MIC, column A: <=.0992 μg/ml
Staph aureus 1146 [4]
  MIC, column C: 0.3969 µg/mL (≈ 0.836 µM)
Staph aureus 1031 [2]
  MIC, column F: <=.0884 μg/ml

## COC(=O)[C@H]1CN(C2CCCc3ccccc32)CC[C@H]1CCC(O)c1ccnc2ccc(OC)cc12 (stereo partly drawn) [Example 76, (3R,4R)-methyl 4-(3-hydroxy-3-(6-methoxyquinolin-4-yl)propyl)-1-(1,2,3,4-tetrahydronaphthalen-1-yl)piperidine-3-carboxylate]
Staph aureus 1031 [1]
  MIC: > 64 µg/mL
Staph aureus 2810
  MIC: > 64 µg/mL
Staph aureus 1031 [2]
  MIC: > 64 µg/mL

## COc1ccc2nccc(C(O)CC[C@@H]3CCN(C4Cc5ccccc5C4)C[C@@H]3C(=O)O)c2c1 (stereo partly drawn) [Example 79, (3R,4R)-1-(2,3-dihydro-1H-inden-2-yl)-4-(3-hydroxy-3-(6-methoxyquinolin-4-yl)propyl)piperidine-3-carboxylic acid]
Staph aureus 1031 [1]
  MIC: 64 µg/mL (≈ 139 µM)
Staph aureus 2810
  MIC: 8 µg/mL (≈ 17.4 µM)
Staph aureus 1031 [2]
  MIC: 8 µg/mL (≈ 17.4 µM)

## COC(=O)[C@H]1CN(C2CCc3cc(F)ccc32)CC[C@H]1CCC(O)c1ccnc2ccc(OC)cc12 (stereo partly drawn) [Example 73, methyl (3R,4R)-1-(5-fluoro-2,3-dihydro-1H-inden-1-yl)-4-[3-hydroxy-3-(6-methoxyquinolin-yl)propyl]piperidine-3-carboxylate]
Staph aureus 1031 [1]; Staph aureus 1031, Assay 2, 50% human serum
  MIC, column G: >64 µg/mL
Staph aureus 2810
  MIC, column H: >64 µg/mL
Staph aureus 1031 [2]
  MIC, column F: >64 µg/mL

## COc1ccc2nccc(C(O)CC[C@@H]3CCN(C4Cc5ccc(Cl)cc5C4)C[C@@H]3C(=O)O)c2c1 (stereo partly drawn) [Example 80, (3R,4R)-1-(5-chloro-2,3-dihydro-1H-inden-2-yl)-4-(3-hydroxy-3-(6-methoxyquinolin-4-yl)propyl)piperidine-3-carboxylic acid]
Staph aureus 1031 [1]
  MIC: > 64 µg/mL
Staph aureus 2810
  MIC: 1 µg/mL (≈ 2.02 µM)
Staph aureus 1031 [2]
  MIC: 1 µg/mL (≈ 2.02 µM)

## COc1ccc2nccc(C(O)CC[C@@H]3CCN(C4CC(OCc5ccccc5)C4)C[C@@H]3C(=O)O)c2c1 (stereo partly drawn) [Example 20, (3R,4R)-1-[3-(benzyloxy)cyclobutyl]-4-[3-hydroxy-3-(6-methoxyquinolin-4-yl)propyl]piperidine-3-carboxylic acid]
Staph aureus 1031 [1]
  MIC: 64 µg/mL (≈ 127 µM)
Staph aureus 2810
  MIC: 16 µg/mL (≈ 31.7 µM)
Staph aureus 1031 [2]
  MIC: 16 µg/mL (≈ 31.7 µM)

## COc1ccc2nccc([C@@H](O)CC[C@@H]3CCN(C4CCc5cc(F)ccc54)C[C@@H]3C(=O)O)c2c1 (single isomer, unassigned) [Example 75]
Staph aureus 1031 [1]
  MIC: > 64 µg/mL
Staph aureus 2810
  MIC: > 64 µg/mL
Staph aureus 1031 [2]
  MIC: > 64 µg/mL

## COc1ccc2nccc([C@@H](O)CC[C@@H]3CCN(C4CC(c5ccccc5F)C4)C[C@@H]3C(=O)O)c2c1 (stereo partly drawn) [Example 89, (3R,4R)-1-[3-(2-fluorophenyl)cyclobutyl]-4-[(3S)-3-hydroxy-3-(6-methoxyquinolin-4-yl)propyl]piperidine-3-carboxylic acid]
Staph aureus 2811
  MIC: < 0.0625 µg/mL
Staph aureus 1146 [3]
  MIC: < 0.0625 µg/mL
Staph aureus 2812
  MIC: < 0.0625 µg/mL
Staph aureus 1095 MRSA
  MIC: < 0.0625 µg/mL
Staph aureus 1146 [4]
  MIC: 0.5 µg/mL (≈ 1.02 µM)

## COc1ccc2nccc(C(O)CC[C@@H]3CCN(C4CC(O)(c5ccccc5)C4)C[C@@H]3C(=O)O)c2c1 (mixture of isomers) [Example 96, (3R,4R)-4-[3-hydroxy-3-(6-methoxyquinolin-4-yl)propyl]-1-(3-hydroxy-3-phenylcyclobutyl)piperidine-3-carboxcylic acid]
Staph aureus 2811
  MIC, column D: >64 µg/mL
Staph aureus 1146 [3]
  MIC, column B: 8 µg/mL
Staph aureus 2812
  MIC, column E: >64 µg/mL
Staph aureus 1095 MRSA
  MIC, column A: >64 µg/mL
Staph aureus 1146 [4]
  MIC, column C: >64 µg/mL

## COc1ccc2nccc(C(O)CC[C@@H]3CCN(C4CC(O)(c5ccccc5)C4)C[C@@H]3C(=O)O)c2c1 (mixture of isomers) [Example 95, (3R,4R)-4-[3-hydroxy-3-(6-methoxyquinolin-4-yl)propyl]-1-(3-hydroxy-3-phenylcyclobutyl)piperidine-3-carboxcylic acid]
Staph aureus 2811
  MIC, column D: >64 µg/mL
Staph aureus 1146 [3]
  MIC, column B: 16 µg/mL
Staph aureus 2812
  MIC, column E: >64 µg/mL
Staph aureus 1095 MRSA
  MIC, column A: >64 µg/mL
Staph aureus 1146 [4]
  MIC, column C: >64 µg/mL

## COc1ccc2ncc(F)c(C(O)CC[C@@H]3CCN(C4CC(c5c(F)cccc5F)C4)C[C@@H]3C(=O)O)c2n1 (stereo partly drawn) [Example 182, (3R,4R)-1-[3-(2,6-difluorophenyl)cyclobutyl]-4-[3-(3-fluoro-6-methoxy-1,5-naphthyridin-4-yl)-3-hydroxypropyl]piperidine-3-carboxylic acid]
Staph aureus 2811
  MIC: < 0.0625 µg/mL
Staph aureus 1146 [3]
  MIC: < 0.0625 µg/mL
Staph aureus 2812
  MIC: < 0.0625 µg/mL
Staph aureus 1095 MRSA
  MIC: < 0.0625 µg/mL
Staph aureus 1146 [4]
  MIC, column C: 1.00 µg/mL (≈ 1.89 µM)

## COc1ccc2ncc(Cl)c(CCNC3(C(=O)O)CCCN(C4CC(c5cccc(F)c5)C4)CC3)c2c1 (stereo not shown) [Example 155, 4-{[2-(3-chloro-6-methoxyquinolin-4-yl)ethyl]amino}-1-[3-(3-fluorophenyl)cyclobutyl] azepane-4-carboxylic acid]
Staph aureus 2811
  MIC: 0.25 µg/mL (≈ 0.475 µM)
Staph aureus 1146 [3]
  MIC: 0.125 µg/mL (≈ 0.238 µM)
Staph aureus 2812
  MIC: 0.125 µg/mL (≈ 0.238 µM)
Staph aureus 1095 MRSA
  MIC: 1 µg/mL (≈ 1.9 µM)
Staph aureus 1146 [4]
  MIC: 4 µg/mL (≈ 7.6 µM)

## O=C(O)[C@H]1CN(C2CC(c3cc(F)ccc3F)C2)CC[C@H]1CCC(O)c1c(F)cnc2ccc(O)nc12 (mixture of isomers) [Example 206, (3R,4R)-1-[3-(2,5-difluorophenyl)cyclobutyl]-4-[3-(3-fluoro-6-hydroxy-1,5-naphthyridin-4-yl)-3-hydroxypropyl]piperidine-3-carboxylic acid]
Staph aureus 2811
  MIC: 2 µg/mL
Staph aureus 1146 [3]
  MIC: 2 µg/mL
Staph aureus 2812
  MIC: 4 µg/mL
Staph aureus 1095 MRSA
  MIC: 4 µg/mL
Staph aureus 1146 [4]
  MIC: 16 µg/mL
